Laboratory results reported in ChEMBL document CHEMBL4325863, “Investigating alkyl nitrates as nitric oxide releasing precursors of multitarget acetylcholinesterase-monoamine oxidase B inhibitors” (Eur J Med Chem, 2019).

Legend:
[1] = molecular target: T1, Amine oxidase [flavin-containing] A (Homo sapiens, UniProt P21397); experiment: Inhibition of recombinant human MAO-A expressed in baculovirus infected insect cell microsomes at 10 uM using kynuramine as substrate measured after 30 mins by fluorescence based assay relative to control; conditions: 0.5 h
T1 sequence (P21397 whole entry): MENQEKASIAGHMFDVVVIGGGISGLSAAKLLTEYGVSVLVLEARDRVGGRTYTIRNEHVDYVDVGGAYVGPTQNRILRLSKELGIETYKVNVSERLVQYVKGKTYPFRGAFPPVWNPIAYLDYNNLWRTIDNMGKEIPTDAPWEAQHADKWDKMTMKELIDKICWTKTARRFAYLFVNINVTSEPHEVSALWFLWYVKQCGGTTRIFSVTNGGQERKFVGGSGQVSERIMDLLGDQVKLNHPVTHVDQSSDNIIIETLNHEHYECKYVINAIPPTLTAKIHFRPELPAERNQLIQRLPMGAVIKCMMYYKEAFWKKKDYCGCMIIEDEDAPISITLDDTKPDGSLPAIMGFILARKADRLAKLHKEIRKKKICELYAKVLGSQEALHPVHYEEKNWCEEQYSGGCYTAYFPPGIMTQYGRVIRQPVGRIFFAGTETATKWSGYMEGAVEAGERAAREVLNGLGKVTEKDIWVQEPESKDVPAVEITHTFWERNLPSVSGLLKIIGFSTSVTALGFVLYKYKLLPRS

[2] = molecular target: T2, Amine oxidase [flavin-containing] B (Homo sapiens, UniProt P27338); experiment: Inhibition of recombinant human MAO-B expressed in baculovirus infected insect cell microsomes using kynuramine as substrate measured after 30 mins by fluorescence based assay
T2 sequence (P27338 whole entry): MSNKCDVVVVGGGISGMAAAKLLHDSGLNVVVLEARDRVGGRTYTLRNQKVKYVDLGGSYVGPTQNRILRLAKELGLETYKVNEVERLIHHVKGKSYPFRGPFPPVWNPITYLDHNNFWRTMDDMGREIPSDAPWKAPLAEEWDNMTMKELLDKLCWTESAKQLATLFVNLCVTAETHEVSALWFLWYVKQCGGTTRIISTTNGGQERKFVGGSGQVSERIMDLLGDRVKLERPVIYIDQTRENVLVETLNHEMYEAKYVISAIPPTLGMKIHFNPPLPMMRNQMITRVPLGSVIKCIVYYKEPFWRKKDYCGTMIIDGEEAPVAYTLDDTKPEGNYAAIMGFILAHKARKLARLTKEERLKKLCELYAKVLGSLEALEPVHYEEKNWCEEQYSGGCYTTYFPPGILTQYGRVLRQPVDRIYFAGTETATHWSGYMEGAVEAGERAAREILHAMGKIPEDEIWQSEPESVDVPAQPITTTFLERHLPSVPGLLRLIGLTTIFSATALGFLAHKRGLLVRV

[3] = molecular target: Cholinesterase (Equus caballus) (UniProt P81908); experiment: Inhibition of equine serum BuChE at 10 uM using butyrylthiocholine iodide as substrate by Ellman's method relative to control
Cholinesterase (Equus caballus), sequence (P81908 whole entry): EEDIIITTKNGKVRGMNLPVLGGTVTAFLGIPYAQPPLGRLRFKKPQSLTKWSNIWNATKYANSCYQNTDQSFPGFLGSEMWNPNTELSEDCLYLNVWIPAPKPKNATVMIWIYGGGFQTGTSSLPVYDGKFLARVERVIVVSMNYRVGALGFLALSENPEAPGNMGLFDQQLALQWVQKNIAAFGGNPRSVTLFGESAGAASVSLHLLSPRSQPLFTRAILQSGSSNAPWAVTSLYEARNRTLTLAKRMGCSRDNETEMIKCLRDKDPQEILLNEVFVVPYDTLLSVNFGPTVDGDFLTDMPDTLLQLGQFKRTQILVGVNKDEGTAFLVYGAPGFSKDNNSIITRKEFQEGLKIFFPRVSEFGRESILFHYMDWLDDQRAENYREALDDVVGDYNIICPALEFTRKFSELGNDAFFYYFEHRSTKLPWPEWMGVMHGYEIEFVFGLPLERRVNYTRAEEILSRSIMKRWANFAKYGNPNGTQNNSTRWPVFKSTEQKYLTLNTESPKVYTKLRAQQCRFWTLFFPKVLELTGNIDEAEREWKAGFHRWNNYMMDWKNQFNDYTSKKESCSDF

[4] = molecular target: Acetylcholinesterase (Electrophorus electricus, UniProt O42275); experiment: Inhibition of electric eel AChE using acetylthiocholine iodide as substrate by Ellman's method
Acetylcholinesterase (Electrophorus electricus, UniProt O42275), sequence (O42275 whole entry): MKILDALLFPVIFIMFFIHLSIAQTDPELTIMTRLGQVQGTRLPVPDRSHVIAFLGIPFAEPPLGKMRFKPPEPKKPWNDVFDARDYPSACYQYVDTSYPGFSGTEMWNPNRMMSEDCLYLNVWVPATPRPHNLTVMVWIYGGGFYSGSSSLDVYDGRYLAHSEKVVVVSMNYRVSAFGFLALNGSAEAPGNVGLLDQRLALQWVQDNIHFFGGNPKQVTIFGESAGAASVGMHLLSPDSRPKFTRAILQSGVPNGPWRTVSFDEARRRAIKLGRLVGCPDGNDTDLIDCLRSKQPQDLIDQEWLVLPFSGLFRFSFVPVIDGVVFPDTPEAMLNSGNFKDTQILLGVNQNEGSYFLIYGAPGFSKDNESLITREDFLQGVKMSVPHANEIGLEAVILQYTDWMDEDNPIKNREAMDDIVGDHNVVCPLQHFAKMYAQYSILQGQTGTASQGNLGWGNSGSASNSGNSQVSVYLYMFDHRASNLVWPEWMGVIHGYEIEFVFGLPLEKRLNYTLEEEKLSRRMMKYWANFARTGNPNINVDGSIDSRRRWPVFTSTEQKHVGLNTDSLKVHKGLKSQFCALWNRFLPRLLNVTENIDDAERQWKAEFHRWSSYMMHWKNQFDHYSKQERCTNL

[5] = molecular target: T2, Amine oxidase [flavin-containing] B; experiment: Inhibition of recombinant human MAO-B expressed in baculovirus infected insect cell microsomes at 10 uM using kynuramine as substrate measured after 30 mins by fluorescence based assay relative to control; conditions: 0.5 h
[6] = molecular target: Cholinesterase (Equus caballus, UniProt P81908); experiment: Inhibition of equine serum BuChE using butyrylthiocholine iodide as substrate by Ellman's method
Cholinesterase (Equus caballus, UniProt P81908), sequence (P81908 whole entry): as the sequence (P81908 whole entry) above

[7] = molecular target: T1, Amine oxidase [flavin-containing] A; experiment: Inhibition of recombinant human MAO-A expressed in baculovirus infected insect cell microsomes using kynuramine as substrate measured after 30 mins by fluorescence based assay
[8] = molecular target: Acetylcholinesterase (Homo sapiens, UniProt P22303); experiment: Inhibition of human recombinant AChE using acetylthiocholine iodide as substrate by Ellman's method
Acetylcholinesterase (Homo sapiens, UniProt P22303), sequence (P22303 whole entry): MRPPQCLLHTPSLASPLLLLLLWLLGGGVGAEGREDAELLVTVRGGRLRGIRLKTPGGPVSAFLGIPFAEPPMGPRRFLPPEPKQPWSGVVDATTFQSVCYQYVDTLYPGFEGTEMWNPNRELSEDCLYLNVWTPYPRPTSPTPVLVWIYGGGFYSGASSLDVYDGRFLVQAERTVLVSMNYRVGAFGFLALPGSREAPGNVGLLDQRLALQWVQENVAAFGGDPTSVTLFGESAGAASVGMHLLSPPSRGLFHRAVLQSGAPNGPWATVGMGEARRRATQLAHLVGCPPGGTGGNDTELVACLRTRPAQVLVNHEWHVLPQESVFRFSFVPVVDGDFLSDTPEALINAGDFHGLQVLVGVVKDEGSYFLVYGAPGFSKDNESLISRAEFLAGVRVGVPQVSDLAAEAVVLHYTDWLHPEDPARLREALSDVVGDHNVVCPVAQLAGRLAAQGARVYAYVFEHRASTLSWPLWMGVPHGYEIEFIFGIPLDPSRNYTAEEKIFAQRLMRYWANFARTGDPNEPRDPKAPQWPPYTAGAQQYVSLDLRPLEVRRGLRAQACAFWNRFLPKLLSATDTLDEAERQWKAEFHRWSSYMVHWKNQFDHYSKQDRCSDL

[9] = Apparent permeability from basolateral to apical side in MDCK2-MDR1 cells by UV-Visible spectrophotometric method; format: ADME, cell-based, Canis lupus familiaris; conditions: dog, MDCK-MDR1
[10] = Efflux ratio of apparent permeability in MDCK2-MDR1 cells by UV-Visible spectrophotometric method; format: ADME, cell-based, Canis lupus familiaris; conditions: dog, MDCK-MDR1
[11] = molecular target: T3, Cholinesterase (Homo sapiens, UniProt P06276); experiment: Inhibition of human serum BuChE at 10 uM using butyrylthiocholine iodide as substrate by Ellman's method relative to control
T3 sequence (P06276 whole entry): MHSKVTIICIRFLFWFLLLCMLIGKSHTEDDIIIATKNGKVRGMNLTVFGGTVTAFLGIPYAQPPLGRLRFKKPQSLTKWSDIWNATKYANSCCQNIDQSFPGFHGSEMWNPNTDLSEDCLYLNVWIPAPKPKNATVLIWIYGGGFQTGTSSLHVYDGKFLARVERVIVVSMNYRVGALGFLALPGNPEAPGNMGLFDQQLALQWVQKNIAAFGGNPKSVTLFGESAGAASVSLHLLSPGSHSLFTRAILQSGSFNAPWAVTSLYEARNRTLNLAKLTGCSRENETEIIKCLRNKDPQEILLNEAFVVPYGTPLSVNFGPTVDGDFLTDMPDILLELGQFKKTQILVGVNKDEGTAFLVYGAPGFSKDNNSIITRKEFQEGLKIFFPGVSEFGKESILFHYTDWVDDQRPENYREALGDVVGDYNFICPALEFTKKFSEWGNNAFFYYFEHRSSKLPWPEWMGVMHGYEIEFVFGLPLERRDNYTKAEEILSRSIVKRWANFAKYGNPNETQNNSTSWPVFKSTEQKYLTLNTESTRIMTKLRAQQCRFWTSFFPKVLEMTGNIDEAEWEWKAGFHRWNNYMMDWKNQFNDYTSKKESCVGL

[12] = Apparent permeability from apical to basolateral side in MDCK2-MDR1 cells by UV-Visible spectrophotometric method; format: ADME, cell-based, Canis lupus familiaris; conditions: dog, MDCK-MDR1
[13] = system: SH-SY5Y; experiment: Neuroprotection against rotenone/H2O2-induced cell death in human SH-SY5Y cells assessed as increase in cell viability preincubated for 24 hrs followed by rotenone/H2O2 addition measured after 24 hrs by MTT assay; format: functional, cell-based
[14] = system: SH-SY5Y; experiment: Cytotoxicity against human SH-SY5Y cells assessed as reduction in cell viability after 24 hrs by MTT assay; format: cell-based
[15] = Half life in human serum at 100 uM by RP-HPLC method; format: ADME, cell-free
[16] = Drug metabolism in pH 7.4 PBS buffer assessed as 7-{[1-(3-Hydroxypropyl)piperidin-4-yl]methoxy}-3,4-dimethyl-2H-chromen-2-one formation at 100 uM after 24 hrs by RP-HPLC method
[17] = Drug metabolism in PBS buffer assessed as nitric oxide release at 150 uM in presence of cysteine by Griess reagent based UV-Visible spectrophotometric method; conditions: TDE = time-dependent effect
[18] = Drug metabolism in pH 7.4 PBS buffer assessed as 7-{[1-(3-Hydroxypropyl)piperidin-4-yl]methoxy}-3,4-dimethyl-2H-chromen-2-one formation at 100 uM up to 30 hrs in presence of cysteine by RP-HPLC method
[19] = Drug metabolism in pH 7.4 PBS buffer assessed as 7-{[1-(3-Hydroxypropyl)piperidin-4-yl]methoxy}-3,4-dimethyl-2H-chromen-2-one formation at 100 uM up to 30 hrs in presence of glutathione by RP-HPLC method
[20] = molecular target: T2, Amine oxidase [flavin-containing] B; experiment: Inhibition of recombinant human MAO-B expressed in baculovirus infected insect cell microsomes using kynuramine as substrate measured after 30 mins by spectrophotometric assay
[21] = Drug metabolism in pH 7.4 PBS buffer assessed as 7-({1-[3-(Hydroxymethyl)benzyl]piperidin-4-yl}methoxy)-3,4-dimethyl-2H-chromen-2-one formation at 100 uM up to 30 hrs in presence of glutathione by RP-HPLC method
[22] = Drug metabolism in pH 7.4 PBS buffer assessed as 7-({1-[3-(Hydroxymethyl)benzyl]piperidin-4-yl}methoxy)-3,4-dimethyl-2H-chromen-2-one formation at 100 uM up to 30 hrs in presence of cysteine by RP-HPLC method
[23] = Drug metabolism in pH 7.4 PBS buffer assessed as 7-({1-[3-(Hydroxymethyl)benzyl]piperidin-4-yl}methoxy)-3,4-dimethyl-2H-chromen-2-one formation at 100 uM after 24 hrs by RP-HPLC method
[24] = species on record: Homo sapiens; experiment: Selectivity index, ratio of IC50 for recombinant human MAO-A to IC50 for recombinant human MAO-B
[25] = Selectivity index, ratio of IC50 for equine serum BuChE to IC50 for electric eel AChE
[26] = molecular target: T3, Cholinesterase; experiment: Inhibition of human serum BuChE using butyrylthiocholine iodide as substrate by Ellman's method

## CN(C)Cc1cccc(COc2ccc3c(CO)cc(=O)oc3c2)c1
[1]
  inhibition at 10 µM: 42%
[2]
  IC50: 54 nM
[3]
  inhibition: 36%
[4]
  IC50: 5900 nM

## Cc1c(C)c2ccc(OCCC3CCN(CCCO)CC3)cc2oc1=O
[1]
  inhibition at 10 µM: 35%
[3]
  inhibition: 39%
[4]
  IC50: 720 nM
[5]
  inhibition at 10 µM: 31%

## Cc1cc2ccc(OCC3CCN(Cc4cccc(CO)c4)CC3)cc2oc1=O
[2]
  IC50: 1100 nM
[6]
  IC50: 910 nM
[4]
  IC50: 3200 nM
[7]
  IC50: 3900 nM

## O=c1ccc2ccc(OCC3CCCN(CCCO)C3)cc2o1 (stereo not drawn)
[1]
  inhibition at 10 µM: 14%
[6]
  IC50: 1700 nM
[4]
  IC50: 3500 nM
[5]
  inhibition at 10 µM: 42%

## Cc1c(C)c2ccc(OCC3CCN(CCCO)CC3)cc2oc1=O
[8]
  IC50: 890 nM
[9]
  Papp B→A: 14.9 ×10⁻⁶ cm/s
[1]
  inhibition at 10 µM: 44%
[2]
  IC50: 480 nM
[10]
  efflux ratio: 1.5
[3]
  inhibition: 30%
[11]
  inhibition: < 5%
[12]
  Papp A→B: 9.92 ×10⁻⁶ cm/s
[13]
  Activity: Dose-dependent effect
[4]
  IC50: 1300 nM
[14]
  Activity: > 100 µM

## Cc1c(C)c2ccc(OCC3CCN(CCCO[N+](=O)[O-])CC3)cc2oc1=O
[15]
  half-life at 100 µM: 23 h
[8]
  IC50: 860 nM
[9]
  Papp B→A: 15.7 ×10⁻⁶ cm/s
[1]
  inhibition at 10 µM: 36%
[2]
  IC50: 250 nM
[10]
  efflux ratio: 3.17
[16]
  Drug metabolism: Metabolite detected
[11]
  inhibition: < 5%
[12]
  Papp A→B: 4.96 ×10⁻⁶ cm/s
[13]
  Activity: Dose-dependent effect
[17]
  Drug metabolism: Tde
[18]
  Drug metabolism: Metabolite not detected
[14]
  Activity: > 100 µM
[19]
  Drug metabolism: Metabolite not detected

## Cc1c(C)c2ccc(OCC3CCN(Cc4cccc(CO)c4)CC3)cc2oc1=O
[8]
  IC50: 1400 nM
[9]
  Papp B→A: 21.5 ×10⁻⁶ cm/s
[2]
  IC50: 76 nM
[10]
  efflux ratio: 1.09
[12]
  Papp A→B: 19.8 ×10⁻⁶ cm/s
[13]
  Activity: Dose-dependent effect
[6]
  IC50: 1300 nM
[4]
  IC50: 1000 nM
[14]
  Activity: 43 µM
[7]
  IC50: 1900 nM

## CN(C)Cc1cc(=O)oc2cc(OCc3cccc(CO)c3)ccc12
[1]
  inhibition at 10 µM: 21%
[2]
  IC50: 1100 nM
[3]
  inhibition: 35%
[4]
  IC50: 4400 nM

## CN(C)Cc1cc(=O)oc2cc(OCc3ccc(CO)cc3)ccc12
[1]
  inhibition at 10 µM: 23%
[2]
  IC50: 630 nM
[6]
  IC50: 11000 nM
[4]
  IC50: 1300 nM
[20]
  IC50: 770 nM

## Cc1c(C)c2ccc(OCC3CCN(Cc4cccc(CO[N+](=O)[O-])c4)CC3)cc2oc1=O
[21]
  Drug metabolism: Metabolite detected
[15]
  half-life at 100 µM: 36.8 h
[8]
  IC50: 1300 nM
[9]
  Papp B→A: 16.5 ×10⁻⁶ cm/s
[22]
  Drug metabolism: Metabolite detected
[2]
  IC50: 51 nM
[10]
  efflux ratio: 1.33
[12]
  Papp A→B: 12.4 ×10⁻⁶ cm/s
[13]
  Activity: Dose-dependent effect
[17]
  Drug metabolism: Tde
[14]
  Activity: 36 µM
[7]
  IC50: 230 nM
[23]
  Drug metabolism: 7%

## Cc1c(C)c2ccc(OCc3cccc(CN4CCC(CO)CC4)c3)cc2oc1=O
[1]
  inhibition at 10 µM: 23%
[2]
  IC50: 320 nM
[6]
  IC50: 1000 nM
[4]
  IC50: 2900 nM

## Cc1c(C)c2ccc(OCC3CCN(Cc4cccc(OCCCO)c4)CC3)cc2oc1=O
[8]
  IC50: 840 nM
[2]
  IC50: 780 nM
[24]
  Ratio IC50: 0.7
[6]
  IC50: 180 nM
[25]
  Ratio IC50: 0.1
[26]
  IC50: 740 nM
[4]
  IC50: 1800 nM
[7]
  IC50: 550 nM

## Cc1c(C)c2ccc(OCC3CCCN(Cc4cccc(CO)c4)C3)cc2oc1=O (stereo not drawn)
[2]
  IC50: 110 nM
[6]
  IC50: 2700 nM
[4]
  IC50: 900 nM
[7]
  IC50: 2200 nM

## CN(C)Cc1ccc(COc2ccc3c(CO)cc(=O)oc3c2)cc1
[1]
  inhibition at 10 µM: 20%
[2]
  IC50: 78 nM
[3]
  inhibition: 43%
[4]
  IC50: 4500 nM
[20]
  IC50: 74 nM

## Cc1c(C)c2ccc(OCC3CCCN(Cc4ccc(CO)cc4)C3)cc2oc1=O (stereo not drawn)
[2]
  IC50: 76 nM
[6]
  IC50: 8600 nM
[4]
  IC50: 1200 nM
[7]
  IC50: 1100 nM

## Cc1cc2ccc(OCC3CCN(Cc4ccc(CO)cc4)CC3)cc2oc1=O
[1]
  inhibition at 10 µM: 43%
[2]
  IC50: 3100 nM
[6]
  IC50: 8100 nM
[4]
  IC50: 3000 nM

## Cc1c(C)c2ccc(OCC3CCN(CCCCO)CC3)cc2oc1=O
[1]
  inhibition at 10 µM: 30%
[2]
  IC50: 3600 nM
[6]
  IC50: 8300 nM
[4]
  IC50: 500 nM

## Cc1cc(=O)oc2cc(OCC3CCN(Cc4cccc(CO)c4)CC3)ccc12
[2]
  IC50: 480 nM
[6]
  IC50: 1900 nM
[4]
  IC50: 1600 nM
[7]
  IC50: 3500 nM

## Cc1c(C)c2ccc(OCC3CCN(Cc4ccc(CCO)cc4)CC3)cc2oc1=O
[2]
  IC50: 120 nM
[3]
  inhibition: 41%
[4]
  IC50: 1200 nM
[7]
  IC50: 1700 nM

## Cc1c(C)c2ccc(OCC3CCCN(CCCO)C3)cc2oc1=O (stereo not drawn)
[1]
  inhibition at 10 µM: 41%
[2]
  IC50: 1500 nM
[3]
  inhibition: 26%
[4]
  IC50: 1800 nM

## Cc1c(C)c2ccc(OCC3CCN(Cc4ccc(CO)cc4)CC3)cc2oc1=O
[2]
  IC50: 29 nM
[24]
  Ratio IC50: 48
[6]
  IC50: 8800 nM
[4]
  IC50: 1000 nM
[20]
  IC50: 39 nM
[7]
  IC50: 1400 nM

## Cc1cc(=O)oc2cc(OCC3CCN(Cc4ccc(CO)cc4)CC3)ccc12
[2]
  IC50: 600 nM
[3]
  inhibition: 45%
[4]
  IC50: 1600 nM
[7]
  IC50: 11000 nM
